Results: PubChem BioAssay AID651650 (Sanford-Burnham Center for Chemical Genomics, 2012)
Activity calls are given as the source filed them.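 The calls were made as follows: active = mean IC50 below 20 µM in each of the two panels, so potent in both; inactive = the rest.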

Target: Neuropilin-1 (Homo sapiens) (UniProt O14786)
Assay: blockers of CendR peptide binding to NRP-1 – biochemical, FP and AlphaScreen panel, dose response (AID 651650)
Conditions: NRP-1 b1b2 / RPARPAR peptide binding, FP or AlphaScreen
[1] = AlphaScreen, run 1, individual panel run IC50
[2] = FP, run 1, individual panel run IC50
[3] = FP, run 2, individual panel run IC50

Neuropilin-1 (Homo sapiens), sequence (O14786 whole entry, looked up): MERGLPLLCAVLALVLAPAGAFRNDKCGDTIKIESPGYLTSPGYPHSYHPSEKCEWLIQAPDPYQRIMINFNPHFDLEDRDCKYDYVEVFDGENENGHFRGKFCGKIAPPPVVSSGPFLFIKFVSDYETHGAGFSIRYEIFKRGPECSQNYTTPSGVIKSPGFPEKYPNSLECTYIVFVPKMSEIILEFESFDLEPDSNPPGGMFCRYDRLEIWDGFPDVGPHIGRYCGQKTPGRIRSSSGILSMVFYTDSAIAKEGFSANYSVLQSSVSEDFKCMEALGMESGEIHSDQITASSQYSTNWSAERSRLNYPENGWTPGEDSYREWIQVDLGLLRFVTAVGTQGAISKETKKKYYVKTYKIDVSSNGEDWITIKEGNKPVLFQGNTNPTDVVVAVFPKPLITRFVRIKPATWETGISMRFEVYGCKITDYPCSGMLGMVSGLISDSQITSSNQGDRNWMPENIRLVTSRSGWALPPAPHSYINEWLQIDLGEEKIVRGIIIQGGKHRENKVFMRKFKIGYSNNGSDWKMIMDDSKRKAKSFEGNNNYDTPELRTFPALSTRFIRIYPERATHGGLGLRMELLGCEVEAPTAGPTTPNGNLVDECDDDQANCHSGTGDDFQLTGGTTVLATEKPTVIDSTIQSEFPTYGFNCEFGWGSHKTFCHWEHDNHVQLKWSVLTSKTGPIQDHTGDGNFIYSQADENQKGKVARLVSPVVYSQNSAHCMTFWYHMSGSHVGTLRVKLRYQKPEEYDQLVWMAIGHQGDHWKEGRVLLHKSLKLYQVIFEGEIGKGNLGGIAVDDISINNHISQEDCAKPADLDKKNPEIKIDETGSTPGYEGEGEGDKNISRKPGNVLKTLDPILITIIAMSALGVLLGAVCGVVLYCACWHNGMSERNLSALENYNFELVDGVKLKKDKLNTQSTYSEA

Row | SMILES | IC50 (AlphaScreen, mean of runs) | IC50 [1] [µM] | IC50 (FP, mean of runs) | IC50 [2] [µM] | IC50 [3] [µM]
1 | CNc1nc(-c2ccc3c(c2)CCN3C(=O)c2ccccc2F)cs1 | > 100 µM (inactive) | > 100 | > 95 µM (inactive) | > 95 | > 95
2 | C=CCN1C(=O)C2(C(C(=O)OCC)=C(N)Oc3ccccc32)c2c1c1ccccc1oc2=O (stereo not given) | > 100 µM (inactive) | > 100 | > 95 µM (inactive) | > 95 | > 95
3 | COc1cccc(OCCNC(=O)Nc2cc(F)c(F)cc2Cl)c1 | > 100 µM (inactive) | > 100 | > 95 µM (inactive) | > 95 | > 95
4 | O=C(/C=C/c1ccccc1)c1ccccn1 | > 100 µM (inactive) | > 100 | > 95 µM (inactive) | > 95 | > 95
5 | O=C(Nc1cccc(S(=O)(=O)N2CCCCC2)c1)c1ccc([N+](=O)[O-])o1 | > 100 µM (inactive) | > 100 | > 95 µM (inactive) | > 95 | > 95
6 | CCc1cccc(NC(=O)CCc2c(C)nn(-c3ccc(N4CCOCC4)nn3)c2C)c1 | inactive | 40.2 | > 95 µM (inactive) | > 95 | > 95
7 | O=[N+]([O-])c1ccc(Nc2nc(NC3CCCCC3)nc(N3CCCC3)n2)cc1 | > 100 µM (inactive) | > 100 | > 95 µM (inactive) | > 95 | > 95
8 | CC(C)C[C@@H](COc1ccccc1)N1CCN(CCc2ccccc2)CCC1=O | > 100 µM (inactive) | > 100 | > 95 µM (inactive) | > 95 | > 95
9 | CC(=O)C(C(c1ccccc1)N1CCCc2ccccc21)N1CCOCC1 (stereo not given) | inactive | 72.2 | > 95 µM (inactive) | > 95 | > 95
10 | COc1ccc(C(=O)N2CCC(C(=O)NCc3ccccn3)CC2)cc1 | > 100 µM (inactive) | > 100 | > 95 µM (inactive) | > 95 | > 95
11 | O=C(Nc1cccc(C(F)(F)F)c1)C1Cc2c(-c3cccc(F)c3)ccnc2O1 (stereo not given) | > 100 µM (inactive) | > 100 | > 95 µM (inactive) | > 95 | > 95
12 | CN(Cc1ccccc1)C(=O)c1nc[nH]c1C(=O)N1CCN(C(=O)OC(C)(C)C)CC1 | > 100 µM (inactive) | > 100 | > 95 µM (inactive) | > 95 | > 95
13 | CCc1ccc(NC(=O)CCn2nc(C)c(S(=O)(=O)N3CCCCC3)c2C)cc1 | > 100 µM (inactive) | > 100 | > 95 µM (inactive) | > 95 | > 95
14 | CCOc1ccc(/C=C2/Sc3ccc(C(=O)NCC4CCCO4)cc3N(C)C2=O)cc1OC (stereo not given) | > 100 µM (inactive) | > 100 | > 95 µM (inactive) | > 95 | > 95
15 | CC(C)(C)OC(=O)N1CCN(C(=O)c2[nH]cnc2C(=O)NCc2ccccc2)CC1 | > 100 µM (inactive) | > 100 | > 95 µM (inactive) | > 95 | > 95
16 | O=C(c1ccc(-c2cccc(C(F)(F)F)c2)o1)N1CCCC(C(F)(F)F)C1 (stereo not given) | > 100 µM (inactive) | > 100 | > 95 µM (inactive) | > 95 | > 95
17 | COc1ccc(-c2csc(NCCc3nc4cc(C(=O)NCCCO)ccc4n3Cc3ccc(C)cc3)n2)cc1 | inactive | 27.6 | > 95 µM (inactive) | > 95 | > 95
18 | C=C1CCN([C@@H](CC(C)C)C(=O)NCCC(C)C)S(=O)(=O)c2ccccc21 | > 100 µM (inactive) | > 100 | > 95 µM (inactive) | > 95 | > 95
19 | O=C1CCCN1CCCNc1nc(NCc2cccs2)nc2ccsc12 | inactive | 28 | > 95 µM (inactive) | > 95 | > 95
20 | COc1ccc(C(C(=O)NC(C)(C)C)N(C(=O)CCC(=O)Nc2cc(C)on2)c2c(C)cccc2C)cc1 (stereo not given) | > 100 µM (inactive) | > 100 | > 95 µM (inactive) | > 95 | > 95
21 | Cc1ccccc1-n1ncc2c1CC(C)(C)CC2NC(=O)c1ccncc1 (stereo not given) | > 100 µM (inactive) | > 100 | > 95 µM (inactive) | > 95 | > 95
22 | CN(C(=O)COC(=O)c1nc(-c2ccccc2)n(-c2ccccc2)n1)C1CCS(=O)(=O)C1 (stereo not given) | > 100 µM (inactive) | > 100 | > 95 µM (inactive) | > 95 | > 95

Row | SMILES | IC50 (AlphaScreen, mean of runs) | IC50 [1] [µM] | IC50 (FP, mean of runs) | IC50 [2] [µM] | IC50 [3] [µM]
23 | COC(=O)C1=C(c2ccc(F)cc2OCc2ccccc2)C[C@@H]2CC[C@H]1N2C(=O)NCCNC(C)=O | 9.37 µM | 9.37 | > 95 µM (inactive) | > 95 | > 95
24 | CCN(CC)C(=O)CSc1nnc(-c2c[nH]c3ccccc23)o1 | > 100 µM (inactive) | > 100 | > 95 µM (inactive) | > 95 | > 95
25 | Cc1ccc(Cl)cc1N1CCN(C(=O)c2cccc3c(=O)c(C)c(-c4ccccc4)oc23)CC1 | > 100 µM (inactive) | > 100 | inactive | 26.6 | > 95
26 | O=C(Nc1cc(C(F)(F)F)ccc1N1CCCC1)C1CC(=O)N(Cc2ccccc2)C1 (stereo not given) | > 100 µM (inactive) | > 100 | > 95 µM (inactive) | > 95 | > 95
27 | O=Cc1ccc(-c2ccccc2C(=O)O)o1 | > 100 µM (inactive) | > 100 | > 95 µM (inactive) | > 95 | > 95
28 | CCOc1ccc(-n2c(Cc3cc(=O)[nH]c(=O)[nH]3)nnc2SC(C)C)cc1 | > 100 µM (inactive) | > 100 | > 95 µM (inactive) | > 95 | > 95
29 | CC(Oc1ccccc1)C(=O)NC1=NCCS1 (stereo not given) | > 100 µM (inactive) | > 100 | > 95 µM (inactive) | > 95 | > 95
30 | CC(C)c1ccc(S(=O)(=O)N2CCN(C(=O)CN3C(=O)c4ccccc4C3=O)CC2)cc1 | > 100 µM (inactive) | > 100 | > 95 µM (inactive) | > 95 | > 95
31 | CCC(=NCCc1ccccc1)c1c(O)n(C2CCCCC2)c(=O)[nH]c1=O | > 100 µM (inactive) | > 100 | > 95 µM (inactive) | > 95 | > 95
32 | O=C(CCC(=O)Nc1ccccc1Cl)NN=C1CCCC1 | inactive | 43.4 | > 95 µM (inactive) | > 95 | > 95
33 | CCOC(=O)Cn1c(=O)n(Cc2ccco2)c(=O)c2ccc(C(=O)NC3CCCC3)cc21 | inactive | 63.7 | > 95 µM (inactive) | > 95 | > 95
34 | O=C(NCc1ccccc1)c1ccc(N2CCC3(CC2)CC(c2ccc(Cl)cc2)=NO3)c([N+](=O)[O-])c1 | inactive | 22 | > 95 µM (inactive) | > 95 | > 95
35 | COc1cc(OC)nc(NC(=O)COC(=O)c2cccc(Cl)c2)n1 | inactive | 27.1 | > 95 µM (inactive) | > 95 | > 95
36 | N=C1C(=O)OCC1c1cc(Cl)ccc1NC(=O)Nc1ccccc1 (stereo not given) | inactive | 90.5 | > 95 µM (inactive) | > 95 | > 95
37 | C#CCOc1nc(C)cc(C)c1S(=O)(=O)c1ccccc1C | > 100 µM (inactive) | > 100 | > 95 µM (inactive) | > 95 | > 95
38 | Cc1onc(-c2ccccc2)c1C(=O)N1CCCC1 | > 100 µM (inactive) | > 100 | > 95 µM (inactive) | > 95 | > 95
39 | CCc1ccc(C2CC(=O)N(c3cccc(F)c3)C3=C2C(=O)OC3)cc1 (stereo not given) | > 100 µM (inactive) | > 100 | > 95 µM (inactive) | > 95 | > 95
40 | O=C1N[C@H](Cc2c[nH]c3ccccc23)COC(=O)[C@H](Cc2ccc(F)cc2)C/C=C\C[C@H]1CC(=O)N(CCO)Cc1ccccc1 | 15 µM | 15 | > 95 µM (inactive) | > 95 | > 95
41 | CN1C(=O)c2oc3ccccc3c(=O)c2C1c1ccccn1 (stereo not given) | inactive | 34.9 | inactive | 25.1 | 21.4
42 | OCCCc1n[nH]c(=S)n1-c1ccccc1 | > 100 µM (inactive) | > 100 | > 95 µM (inactive) | > 95 | > 95
43 | CCn1cc(C(=O)N2CCN(C(=O)c3ccco3)CC2)c2cc(OC)c(OC)cc2c1=O | inactive | 25.4 | > 95 µM (inactive) | > 95 | > 95
44 | CC(NCCOCCOc1ccccc1)c1ccccc1 (stereo not given) | > 100 µM (inactive) | > 100 | > 95 µM (inactive) | > 95 | > 95
